Measured values as given in patent US7008945B1, “Amide derivatives” (AstraZeneca AB, priority 1999, dated 2006).

Key:
p38α = molecular target: T1, p38α (Homo sapiens, UniProt Q16539); assay: In vitro enzyme assay, p38α; type: biochemical; conditions: read-out: IC50 against p38α
T1 construct: c-myc (N); 6His (N); made in house; host or cells: E. coli (PET vectors)
Experimental: (§1) The ability of compounds of the invention to inhibit the enzyme p38 kinase was assessed. Activity of test compounds against each of the p38α and p38β isoforms of the enzyme was determined. […]
(§2) Test compounds were solubilised in DMSO and 10 μl of a 1:10 diluted sample in ‘Kinase Buffer’ was added to a well in a Microtiter plate. […] The precipitated protein was phosphorylated by p38 kinase and test compounds were assessed for their ability to inhibit this phosphorylation. The plates were filtered using a Canberra Packard Unifilter and washed with 2% TCA, dried overnight and counted on a Top Count scintillation counter.
(§3) Test compounds were tested initially at a single dose and active compounds were retested to allow IC50 values to be determined.

TNFα production = assay: Human Whole Blood test (LPS-stimulated TNFα production); type: cell-based; conditions: inhibition of TNFα production in LPS-stimulated human whole blood
Experimental: The ability of the compounds of this invention to inhibit TNFα production was also assessed in a human whole blood assay. Human whole blood secretes TNFα when stimulated with LPS. This property of blood forms the basis of an assay which is used as a secondary test for compounds which profile as active in the PBMC test.
Heparinised (10 units/ml) human blood was obtained from volunteers. 160 μl whole blood were added to 96 well round-bottom plates (Corning 25850). Compounds were solubilised and serially diluted in RPMI 1640 medium (Gibco) supplemented with 50 units/ml penicillin, 50 μg/ml streptomycin and 2 mM glutamine, as detailed above. 20 μl of each test concentration was added to appropriate wells (triplicate cultures), 20 μl of RPMI 1640 medium supplemented with antibiotics and glutamine was added to control wells. Plates were incubated for 30 minutes at 37° C. (humidified incubator), prior to addition of 20 μl LPS (final concentration 10 μg/ml). RPMI 1640 medium was added to control wells. Six “LPS alone” and four “medium alone” controls were included on each plate. A known TNFα synthesis/secretion inhibitor was included in each test. Plates were incubated for 6 hours at 37° C. (humidified incubator). Plates were centrifuged (2000 rpm for 10 minutes) and 100 μl plasma removed and stored at −70° C. (Corning 25850 plates). TNFα levels were measured by ELISA (see WO92/10190 and Current Protocols in Molecular Biology, vol 2 by Frederick M. Ausbel et al., John Wiley and Sons Inc.). The paired antibodies that were used in the ELIZA were obtained from R&D Systems (catalogue nos. MAB610 anti-human TNFA coating antibody, BAF210 biotinylated anti-human TNFα detect antibody).

p38β = molecular target: T2, p38β (Homo sapiens, UniProt Q15759); assay: In vitro enzyme assay, p38β; type: biochemical; conditions: read-out: IC50 against p38β
T2 construct: Human recombinant p38α and p38β isoforms were produced as 5′ c-myc, 6His tagged proteins; fused on or other part: N-terminal c-myc and 6His tags
Experimental: as §1, §2, §3

T1 sequence (Q16539 whole entry): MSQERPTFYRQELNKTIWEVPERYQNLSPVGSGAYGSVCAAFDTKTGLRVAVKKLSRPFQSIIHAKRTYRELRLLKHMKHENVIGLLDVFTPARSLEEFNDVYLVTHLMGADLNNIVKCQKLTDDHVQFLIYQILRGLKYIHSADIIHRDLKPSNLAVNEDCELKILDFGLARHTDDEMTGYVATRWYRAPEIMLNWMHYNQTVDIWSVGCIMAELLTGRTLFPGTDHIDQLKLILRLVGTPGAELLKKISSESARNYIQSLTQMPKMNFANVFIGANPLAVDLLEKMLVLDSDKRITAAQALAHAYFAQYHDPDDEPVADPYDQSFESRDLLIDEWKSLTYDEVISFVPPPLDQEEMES
T2 sequence (Q15759 whole entry, the tested form may be a part, canonical isoform): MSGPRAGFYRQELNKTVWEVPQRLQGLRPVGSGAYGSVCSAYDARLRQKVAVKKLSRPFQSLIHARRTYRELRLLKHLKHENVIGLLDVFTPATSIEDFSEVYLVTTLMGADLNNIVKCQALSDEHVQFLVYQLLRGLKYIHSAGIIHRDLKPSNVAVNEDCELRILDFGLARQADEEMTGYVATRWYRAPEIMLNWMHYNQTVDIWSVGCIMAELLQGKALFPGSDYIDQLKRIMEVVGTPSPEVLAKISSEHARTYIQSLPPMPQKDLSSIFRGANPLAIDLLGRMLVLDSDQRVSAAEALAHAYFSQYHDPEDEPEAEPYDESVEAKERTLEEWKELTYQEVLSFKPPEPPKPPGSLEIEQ

Compound	IC50 (p38α) [µM]	IC50 (TNFα production) [µM]	IC50 (p38β) [µM]
Cc1ccc(NC(=O)c2ccnc(N3CCOCC3)c2)cc1-n1cnc2ccc(N(C)CCCN(C)C)cc2c1=O [6-[N-(3-dimethylaminopropyl)-N-methylamino]-3-[2-methyl-5-(2-morpholinopyrid-4-ylcarbonylamino)phenyl]-3,4-dihydroquinazolin-4-one]	~0.2	~2	–
Cc1ccc(NC(=O)c2ccnc(N3CCOCC3)c2)cc1-n1cnc2c(N(C)CCCN(C)C)cccc2c1=O [8-[-(3-dimethylaminopropyl)-N-methylamino]-3-[2-methyl-5-(2-morpholinopyrid-4-ylcarbonylamino)phenyl]-3,4-dihydroquinazolin-4-one]	~0.1	~7	–
CN(C)CCCN(C)c1ccc2ncn(-c3cccc(NC(=O)c4ccnc(N5CCOCC5)c4)c3)c(=O)c2c1 [6-[N-(3-dimethylaminopropyl)-N-methylamino]-3-[5-(2-morpholinopyrid-4-ylcarbonylamino)phenyl]-3,4-dihydroquinazolin-4-one]	–	~5	~0.05
